“Also recorded” adds a separate entry of the source. Like-named read-outs stand apart in the source and are kept apart here.
Experiments:
[1] = pKa by UV metric at pH 2 to pH 12; format: physicochemical
Excerpt: The pKa of a drug influences lipophilicity, solubility, protein binding, and permeability, which in turn directly affects pharmacokinetic (PK) characteristics such as absorption, distribution, metabolism, and excretion.
(§1) The biopharmaceutical properties of the synthesized M13 (5-glutathione-6-shogaol) were characterized.

Tester strain TA98 = test: Ames test (bacterial reverse mutation), strain TA98; format: cell-based, Salmonella typhimurium; details: TA98, all tested concentrations
Protocol: (§2) The mutagenic potential of M13 was assessed using the Ames test. The Ames test, or bacterial reverse mutation test, introduced by Bruce Ames and his group in the early 1970s, is currently widely employed to assess the mutagenic potential of chemical compounds. In this biological assay, several strains of Salmonella ryphimurium carrying mutations in genes responsible for histidine synthesis are used, so these strains cannot produce this critical amino acid. […]
(§3) M13 at concentrations of […] and positive (NaN3; 2-nitrofluorene (NF) and 2-amonoanthracene) and negative (PBS) controls were tested on two tester strains; TA98 reverted from histidine dependence (auxotrophy) to histidine independence (prototrophy) by frameshift mutagens and tester TA100 reverted by mutagens that cause both frameshift and base pair substitution mutations. The colony numbers on the negative, positive control and M13 treated plates were determined by manual counting. The mean number of revertants per plate, the standard deviation, and the mutation factor (i.e., mean number of revertants on the test item plate/mean number of revertants on the vehicle plate) were calculated.
(§4) Next, the mutagenic potential of M13 using a Salmonella typhimurium reverse mutation assay were assessed (Ames test). […]

tester TA100 = test: Ames test (bacterial reverse mutation), strain TA100; format: cell-based, Salmonella typhimurium; details: TA100, all tested concentrations
Protocol: as §2, §3, §4

SARS-CoV-2 = SARS-CoV-2 infectivity IF assay (Nucleocapsid staining) in Vero cells; format: cell-based; details: Vero cells pre-incubated 60 minutes prior to infection, 24 hours, read-out: EC50 antiviral activity against SARS-CoV-2
Protocol: Cells were seeded in complete media at 8000 cells/100 μl/well in four plates: two for the cytotoxicity assay and two for the infectivity assay. After seeding, the plates were incubated at room temperature for 5 minutes for even distribution, and then at 37° C., 5% CO2 until the following day.
Formulations were prepared at twice the final concentration, and they were diluted to the final desired concentration by an equal volume of virus or media. The initial amounts weighted and the volume in which these were resuspended are recorded.
The prepared stocks (0.5 mg/ml) were diluted in 800 μl of infection media to twice the final drug concentration (200 μM). […]
Residual formaldehyde was quenched with 50 mM Ammonium Chloride, after which cells were permeabilized (0.1% Triton X 100) and stained with an antibody recognizing SARS-CoV2 Nucleocapsid protein (Thermo Fisher MA536271). The primary antibody was detected with an Alexa-488 conjugate secondary antibody (Life Technologies, A21207), and nuclei were stained with Hoechst. Images were acquired on a Cell-Insight CX5 high content platform (Thermo Scientific) using a 4× objective, and percentage infection calculated using CellInsight CX5 software (infected cells/total cells×100).
Normalized percentages of inhibition were calculated using the following formula: […]

[2] = Incubation with mouse intestinal microsomes (HPLC); format: in vitro ADME; details: mouse, intestinal microsomes; incubation for 30 minutes; read-out: relative content retained of the input
Excerpt: as §1

HC-CSC = test: MTT viability assay, 2D culture; format: cell-based, human
Protocol: PBMCs were provided by STEMCELL Technologies (STEMCELL Canada Inc.) and maintained in ImmunoCult™-XF T-cell Expansion Medium (Cat #10981). HIEC-6 cells were maintained in OptiMEM 1 Reduced Serum Medium supplemented with 20 mM HEPES, 10 mM GlutaMAX, 10 ng/mL Epidermal Growth Factor, 4% (v/v) fetal bovine serum (FBS), and 1% penicillin-streptomycin (PS). HCT-116 cells were maintained in ATCC-formulated McCoy's 5a medium, supplemented with 10% (v/v) FBS and 1% PS. Caco-2/BBe cells were grown in DMEM supplemented with 10% (v/v) FBS and 1% PS (v/v). Human colon cancer stem cells (HC-CSC) were maintained in complete growth media with serum and antibiotics (Cat #M36112-39S) from Celprogen Inc. (Torrance, CA, USA).
The […] (MTT) assay was used to study the effects of M13 on the viability of four 2D-cultured human intestinal cell lines (HIEC-6, HCT-116, Caco-2/BBe, and HC-CSC).

[3] = system: cell cycle control/phosphorylation proteins; test: Cell Cycle Control Phospho Antibody Array on Caco-2/BBe cell lysates; format: cell-based, human; details: 24 hours
Protocol: The mechanism by which M13 exerts its anti-cancer effects was explored. Cell lysates of Caco-2/BBe cells incubated for 24 hours with free M13, NL, or M13-NL were hybridized on cancer-related protein array membranes (Proteome Profiler™ Human XL Oncology Array), and cell cycle control/phosphorylation profiling protein antibody microarray slides (Cell Cycle Control Phospho Antibody Array).

Vero cells = details: added one-hour post-infection setting
Protocol: Virus and formulations were then left on the cells for the entire duration of the experiment (24 hours). The cytotoxicity of the same range of concentrations of formulations was determined by MTT assay.
The antiviral plates were incubated for 1 hour at 37° C., 5% CO2. The cytotoxicity plates were incubated for 24 hours at 37° C., 5% CO2.
After 24 hours, the infection plates were washed with PBS, fixed for 30 minutes with 4% formaldehyde, washed again with PBS, and stored in PBS at 4° C. until staining. The cytotoxicity plate was treated with MTT to determine cell viability.
Cytotoxicity was detected by MTT assay. Briefly, the MTT reagent (Sigma, M5655) was added to the cells for 2 hours at 37° C., 5% CO2, after which the media was removed, and the precipitate solubilized with a mixture of 1:1 Isopropanol: DMSO for 20 minutes. The supernatant was transferred to a clean plate and signal was read at 570 nm.

[4] = system: lung cancer cells (H-1299); details: cited from earlier work
[5] = system: human normal colon fibroblast cells (CCD-18Co); details: cited from earlier work
[6] = system: normal lung cells (IMR-90); details: cited from earlier work

CCCCCC(CC(=O)CCc1ccc(O)c(OC)c1)SCC(NC(=O)CCC(N)C(=O)O)C(=O)NCC(=O)O (stereo not drawn) [M13, 5-glutathione-6-shogaol]
pKa ([1]; read-out: pKa1): 3.24 | pKa ([1]; read-out: pKa2): 9.12 | pKa ([1]; read-out: pKa3): 10.4 | revertant colony numbers (Tester strain TA98): did not demonstrate an increase in revertant colony numbers; also recorded: did not increase the number of revertant colonies | revertant colony numbers (tester TA100): did not demonstrate an increase in revertant colony numbers; also recorded: did not increase the number of revertant colonies | EC50 (SARS-CoV-2; Severe acute respiratory syndrome coronavirus 2, Vero): ~36 µM | EC50 (SARS-CoV-2): 35.8 µM | remaining at 0.5 h [2]: 86% | fold by which IC50 against HIEC-6 is higher (HC-CSC; HIEC-6 vs HC-CSC): 5.8 fold | IC50 (HC-CSC; Homo sapiens, 24 h incubation): 17.4 µM | CDC25A and phosphorylated CDC25A (p-CDC25A) vs control and NL groups [3]: down-regulated | toxicity (Vero cells): low toxicity | bioactivity [4]: exhibited bioactivity | toxicity [5]: low toxicity | toxicity [6]: low toxicity

— patent publication US20260285903A1, “SYNTHESIZED BIOLOGICALLY ACTIVE COMPOUNDS AND METHODS OF MAKING AND USING” (Georgia State University Research Foundation, Inc., priority 2023, published 2026)
